Data: ChEMBL document CHEMBL1130842, “Synthesis and in vitro cytotoxicity of lipophilic platinum(II) complexes” (Bioorg Med Chem Lett, 1998)
Converted amounts (≈) assume the structure as drawn.

Columns and labels:
Type in all cases: functional, cell-based
Lung NSCLC-N6 cell-line = assay: Cytotoxicity was evaluated against lung NSCLC-N6 cell-line by MTT assay; conditions: Homo sapiens
P388 = assay: Cytotoxicity was evaluated against leukemia P388 cell-line by MTT assay; conditions: Mus musculus
E39 = assay: Cytotoxicity was evaluated against renal E39 cell-line by MTT assay; conditions: Homo sapiens
M96 = assay: Cytotoxicity was evaluated against melanoma M96 cell-line by MTT assay; conditions: Homo sapiens

**Q.** Which results are given for `CCCCCCCCCCCCCCC(N)CN` (centres undefined)?
**A.** IC50 (Lung NSCLC-N6 cell-line): 1.1 µg/mL (≈ 4.29 µM); IC50 (P388): 0.1 µg/mL (≈ 0.39 µM); IC50 (E39): 5.3 µg/mL (≈ 20.7 µM); IC50 (M96): 7.8 µg/mL (≈ 30.4 µM)
